Assay results: patent US8106024B2, “Method of treating cancer with an RPN2 gene expression inhibitor” (Taisho Pharmaceutical Co., Ltd., priority 2006, dated 2012)

Legend:
PC-9/CDDP cell = experiment: Caspase activity in cisplatin-resistant lung cancer cells; format: cell-based, human; settings: 3 days
Experimental: (§1) A reagent for measurement of apoptosis was added to the plate after the measurement of the luciferase activity in Test Example 1, and the Caspase activity was measured. […] The Caspase activation rate was calculated with the control siRNA as 0%.
To suppress RPN2 gene expression RPN2 siRNA was transduced into PC-9/CDDP cell which is a cell line of human lung cancer ([…], differentiated gland cancer), and resistant to cisplatin (Cis) that is a anti-cancer drug. Then, the cell was cultured for 3 days in the presence of or in the absence of cisplatin (0.3 μM). Then, Caspase activity was measured in the same way as described in Test Example 2. In addition, for comparison, the same test was conducted also for the system to which control siRNA not suppressing any gene expression was introduced.

Luciferase gene (GL3) = experiment: siRNA introduction efficiency (suppression of luciferase activity); format: cell-based; settings: MCF7-ADR-Luc, atelocollagen transfection array
Experimental: Luciferase gene (GL3) was stably transfected into multidrug-resistant MCF7-ADR cells of which the parental Cell line is MCF7 breast cancer cell. The cell line was expressing luciferase and designated as MCF7-ADR-Luc.
The MCF7-ADR-LUC cell obtained in (2) was inoculated into the array prepared in (1) in 4×10^3 cell number/well, and cultured for 3 days in the presence of 1 nM docetaxel (DOC). To the live cells were added luciferin, and from the luminescence value, cell growth inhibition rate and luciferase siRNA introduction efficiency were measured.
Moreover, siRNA introduction efficiency was evaluated with the suppression rate of the luciferase activity by introduction of luciferase siRNA (GL3siRNA: dsRNA including a sense chain of Sequence No. 7 and an antisense chain of Sequence No. 8), separately from siRNA corresponding to each gene. In addition, luciferin (0.5 mM final concentration: Promega KK) was added to the medium, and the luciferase activity was measured immediately by a luminescence plate reader (ARVO: PerkinElmer, Inc.). Introduction of GL3 siRNA suppressed the luciferase activity by 80% in comparison with the control siRNA.

RPN2 gene [1] = experiment: RPN2 gene expression suppression test in a nude mouse (real-time RT-PCR of tumor); format: in vivo; settings: 1 nmol siRNA/atelocollagen per tumor + 20 mg/kg docetaxel, tumor collected after 1 day
Experimental: 1×10^7 MCF7-ADR-Luc cells suspended in 100 μl PBS (−) were transplanted into the mammary fat pad of the nude mouse (4 weeks old, scalpel). After 7 days, RPN2 siRNA and DOC were administered. Herein, atelocollagen in the final concentration of 5 mg/ml (w/vol) and RPN2 siRNA in 1 nmol per tumor were mixed, and then 200 μl of atelocollagen/siRNA was administered into the tumor. At the same time, 20 mg/kg of docetaxel was administered into the abdominal cavity. After 1 day, the tumor was collected and the total RNA was isolated, and RPN2 gene expression amount was measured with real-time RT-PCR (SYBR ExScript RT-PCR Kit: TaKaRa, LightCycler Real-Time PCR System: F. Hoffmann-La Roche Ltd.).
The RPN2 gene expression amount was measured in the same method as Test Example 5 except that RPN2 siRNA and DOC were administered at 6 weeks after MCF7-ADR-Luc cells were transplanted into the mammary fat pad of the nude mouse (4 weeks old, scalpel).

RPN2 gene [2] = experiment: RPN2 gene expression suppression test (real-time PCR); format: cell-based; settings: MCF7-ADR-Luc, 3 days, atelocollagen transfection array; remaining expression
Experimental: Into the atelocollagen cell transfection array prepared in Test Example 1 (1) were inoculated MCF7-ADR-Luc cells. After 3 days, cDNA was synthesized directly from the cell lysate, and real-time PCR was conducted, to investigate the RPN2 gene expression amount (SuperScript III Platinum CellsDirect Two-Step qRT-PCR: Invitrogen).

MCF7-ADR-Luc cells [3] = experiment: Apoptosis induction test, Caspase-3/7 activity; format: cell-based; settings: 3 days
Experimental: as §1
After 3 days, Caspase activity was measured in the same way as described in Test Example 2.

MCF7-ADR-Luc cells [4] = experiment: Tumor growth test in a nude mouse; format: in vivo; settings: 1 nmol siRNA/atelocollagen per tumor intratumoral + 20 mg/kg docetaxel i.p., 7 days after dosing, vs control siRNA
Experimental: According to the protocol shown in FIG. 6, 1×10^7 MCF7-ADR-Luc cells suspended in 100 μl PBS (−) were transplanted into the mammary fat pad of the nude mouse (4 weeks old, scalpel). After 7 days when the tumor radius reached about 5 mm, siRNA and DOC were administered. Herein, atelocollagen in the final concentration of 5 mg/ml (w/vol) and siRNA in 1 nmol per tumor were mixed, and then 200 μl of atelocollagen (manufactured by KOKEN CO., LTD.)/siRNA was administered into the tumor. At the same time, 20 mg/kg of docetaxel was administered into the abdominal cavity. After 7 days, the tumor radius was measured to compare the tumor volumes.

MCF7-ADR-Luc cells [5] = experiment: Apoptosis induction test, Hoechst staining; format: cell-based; settings: vs control siRNA
Experimental: Moreover, in addition to the Caspase activity, apoptosis induction was investigated with observation by Hoechst staining (the cells were washed with PBS (−), added with 4% PFA-0.1% Triton X-100-1 mg/ml Hoechst 33342/in PBS (−), and fixed and stained at room temperature for 20 minutes. The cells were washed with PBS (−), and then observed under fluorescence microscope.).

HepG2 = experiment: Cell survival in human liver cancer cells (CellTiter-Glo); format: cell-based
Experimental: HepG2, which is a cell line of human liver cancer, was inoculated into a 96 well plate in 5000/well. […] The control siRNA (dsRNA including a sense chain of Sequence No. 5 and an antisense chain of Sequence No. 6) was introduced as the negative control. At the same time with the siRNA, DOC was added in 1 nM of the final concentration. After the culture for 3 days, in order to determine the cell survival rate in each well, a quantification reagent for the live cells (CellTiter-Glo substrate: Promega KK) was added to each well, and the plate was stirred for 2 minutes, and left for 10 minutes. The luminescence was measured by a luminescence plate reader (ARVO: PerkinElmer).

MCF7-ADR-Luc cells [6] = experiment: Apoptosis induction test in a nude mouse (TUNEL staining); format: in vivo; settings: dosed 6 weeks after transplant; siRNA/atelocollagen intratumoral + 20 mg/kg docetaxel; tumor collected after 4 days
Experimental: 1×10^7 MCF7-ADR-Luc cells suspended in 100 μl PBS (−) were transplanted into the mammary fat pad of the nude mouse (4 weeks old, scalpel). After 6 weeks, siRNA and DOC, or siRNA alone was administered. Atelocollagen in the final concentration of 5 mg/ml (w/vol) and siRNA in 1 nmol per tumor were mixed, and then 200 μl of atelocollagen/siRNA was administered into the tumor. At the same time, 20 mg/kg of docetaxel was administered into the abdominal cavity. After 4 days, the tumor was collected, and subjected to TUNEL staining (In Situ Cell Death Detection Kit: F. Hoffmann-La Roche Ltd.). The nucleus was subjected to counter staining with DAPI (4′,6-diamidino-2-phenylindole).

With `N.N.[Cl][Pt][Cl]` [cisplatin, reference compound] the “Caspase activity, Cis+ versus Cis−” value (PC-9/CDDP cell; control siRNA system, cisplatin 0.3 μM) was “no difference”.

“GL3 siRNA: luciferase siRNA: dsRNA including a sense chain of Sequence No. 7 and an antisense chain of Sequence No. 8 (sense CUUACGCUGAGUACUUCGANN; antisense UCGAAGUACUCAGCGUAAGNN; chemistry not given here; listed as Homo sapiens)” was tested, and the “suppression of luciferase activity in comparison with the control siRNA” value (Luciferase gene (GL3)) was 80%.

With “RPN2 siRNA: dsRNA including a sense chain of Sequence No. 3 and an antisense chain of Sequence No. 4 (sense GGCCACUGUUAAACUAGAACA; antisense UUCUAGUUUAACAGUGGCCUG; listed as RNA, chemistry not given here; listed as Homo sapiens)” the “RPN2 gene expression suppressed by, in comparison with control siRNA group” value (RPN2 gene [1]; dosed 6 weeks after transplant) was “about 40%”, the “RPN2 gene expression suppressed by, in comparison with control siRNA group” value (RPN2 gene [1]; dosed 7 days after transplant) was “about 20%” and the “RPN2 gene expression suppressed to” value (RPN2 gene [2]) was “about 25%”. For the same compound, the Caspase activity (MCF7-ADR-Luc cells [3]; 1 nM docetaxel, vs control siRNA) was “induced strongly”, the “Caspase activity (apoptosis)” value (MCF7-ADR-Luc cells [3]; in the absence of DOC) was “apoptosis is induced” and the tumor volume (MCF7-ADR-Luc cells [4]) was “significant tumor shrinkage”. The “nucleus morphology by Hoechst staining (aggregation, fragmentation)” value (MCF7-ADR-Luc cells [5]) was “apoptosis is induced”, the “cancer cell growth suppression (luminescence intensity, RLU)” value (HepG2; HepG2, siRNA alone, Lipofectamine 2000, 3 days) was “showed cancer cell growth suppression effects alone” and the “cancer cell growth suppression (luminescence intensity, RLU)” value (HepG2; HepG2, siRNA with 1 nM DOC, 3 days) was “potentiating the cancer cell growth suppression effects of DOC”. The “Caspase activity (apoptosis)” value (PC-9/CDDP cell; cisplatin-treated (0.3 μM, Cis+)) was “significant apoptosis was induced”, the “Caspase activity (apoptosis increase)” value (PC-9/CDDP cell; cisplatin-untreated (Cis−)) was “slight” and the “apoptosis cells in tumor (TUNEL staining)” value (MCF7-ADR-Luc cells [6]) was “many apoptosis cells were found”.
